Assays:
Format in all cases: cell-based
HT29 = test: Cell proliferative assay (MTT), HT29; conditions: Homo sapiens, HT-29, 72 h incubation, read-out: IC50s HT29
Procedure: (§1) The synthesized compounds were evaluated for their cytotoxin activity against suspended tumor cells. These cells were seeded on 96-well plates and incubated for 24 h. Selected compounds were added at various doses and incubated for 72 h, MTT was then added, and the absorbance was measured at a wavelength of 590 nm. IC50 values are expressed as the mean±SEM from the dose-response curves of at least three independent experiments.

K562 = test: Cell proliferative assay (MTT), K562; conditions: Homo sapiens, 72 h incubation, read-out: IC50s K562
Outline: (§2)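 Cells were seeded and allowed 24 h before exposure to test compounds at various doses for 72 h. Viability was read by MTT absorbance at 590 nm, and IC50 values were taken from dose-response curves as mean±SEM of at least three independent experiments.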

HepG2 = test: Cell proliferative assay (MTT), HepG2; conditions: Homo sapiens, 72 h incubation, read-out: IC50s HepG2
Outline: as §2

HCT116 = test: Cell proliferative assay (MTT), HCT116; conditions: Homo sapiens, HCT-116, 72 h incubation, read-out: IC50s HCT116
Procedure: as §1

SW620 = test: Cell proliferative assay (MTT), SW620; conditions: Homo sapiens, SW-620, 72 h incubation, read-out: IC50s SW620
Procedure: as §1

tumor cells = test: Cell proliferative assay (MTT), summary over tumor cells; conditions: summary in words of Table 1; colon, liver, leukemia lines
Procedure: as §1

LO2 = test: Cell proliferative assay (MTT), LO2; conditions: Homo sapiens, L02, 72 h incubation, read-out: IC50s LO2
Outline: as §2

SMMC-7221 = test: Cell proliferative assay (MTT), SMMC-7221; conditions: 72 h incubation, read-out: IC50s SMMC-7221
Outline: as §2

A549 = test: Cell proliferative assay (MTT), A549; conditions: Homo sapiens, 72 h incubation, read-out: IC50s A549
Outline: as §2

A375 = test: Cell proliferative assay (MTT), A375; conditions: Homo sapiens, A-375, 72 h incubation, read-out: IC50s A375
Outline: as §2

Row | Compound | IC50 (HT29) | IC50 (K562) | IC50 (HepG2) | IC50 (HCT116) | IC50 (SW620) | IC50 (SMMC-7221) | IC50 (A549) | IC50 (A375) | inhibitory activity against tumor cells (tumor cells) | IC50 (LO2)
1 | COc1cc(/C=C/C(=O)c2ccc(OC)c3c2OC(C)(C)C=C3)cc(OC)c1O [SKLBC-30, (E)-3-(4-hydroxy-3,5-dimethoxyphenyl)-1-(5-methoxy-2,2-dimethyl-2H-chromen-8-yl)prop-2-en-1-one] | > 10 µM | > 10 µM | > 10 µM | > 10 µM | > 10 µM |  |  |  |  | 
2 | COc1ccc(C(=O)/C=C/c2ccco2)c2c1C=CC(C)(C)O2 [SKLBC-31, (E)-3-(furan-2-yl)-1-(5-methoxy-2,2-dimethyl-2H-chromen-8-yl)prop-2-en-1-one] | > 10 µM | > 10 µM | > 10 µM | > 10 µM | > 10 µM |  |  |  |  | 
3 | COc1ccc(C(=O)/C=C/c2cccc3ccccc23)c2c1C=CC(C)(C)O2 [SKLBC-32, (E)-1-(5-methoxy-2,2-dimethyl-2H-chromen-8-yl)-3-(naphthalen-1-yl)prop-2-en-1-one] | > 10 µM | > 10 µM | > 10 µM | > 10 µM | > 10 µM |  |  |  |  | 
4 | COc1ccc(C(=O)/C=C/c2ccc(Cl)cc2)c2c1C=CC(C)(C)O2 [SKLBC-34, (E)-3-(4-chlorophenyl)-1-(5-methoxy-2,2-dimethyl-2H-chromen-8-yl)prop-2-en-1-one] | > 10 µM | > 10 µM | > 10 µM | > 10 µM | > 10 µM |  |  |  |  | 
5 | COc1ccc(C(=O)/C=C/c2cccc(Cl)c2)c2c1C=CC(C)(C)O2 [SKLBC-35, (E)-3-(3-chlorophenyl)-1-(5-methoxy-2,2-dimethyl-2H-chromen-8-yl)prop-2-en-1-one] | > 10 µM | > 10 µM | > 10 µM | > 10 µM | > 10 µM |  |  |  |  | 
6 | COc1ccc(C(=O)/C=C/c2cccs2)c2c1C=CC(C)(C)O2 [SKLBC-36, (E)-1-(5-methoxy-2,2-dimethyl-2H-chromen-8-yl)-3-(thiophen-2-yl)prop-2-en-1-one] | > 10 µM | > 10 µM | > 10 µM | > 10 µM | > 10 µM |  |  |  |  | 
7 | COc1ccc(C(=O)/C=C/c2ccc(Cl)c(Cl)c2)c2c1C=CC(C)(C)O2 [SKLBC-37, (E)-3-(3,4-dichlorophenyl)-1-(5-methoxy-2,2-dimethyl-2H-chromen-8-yl)prop-2-en-1-one] | > 10 µM | > 10 µM | > 10 µM | 9.44 µM | > 10 µM |  |  |  |  | 
8 | COc1ccc(C(=O)/C=C/c2cc(Cl)ccc2O)c2c1C=CC(C)(C)O2 [SKLBC-38, (E)-3-(5-chloro-2-hydroxyphenyl)-1-(5-methoxy-2,2-dimethyl-2H-chromen-8-yl)prop-2-en-1-one] | > 10 µM | > 10 µM | > 10 µM | 5.24 µM | > 10 µM |  |  |  |  | 
9 | COc1ccc(C(=O)/C=C/c2ccccc2Cl)c2c1C=CC(C)(C)O2 [SKLBC-39, (E)-3-(2-chlorophenyl)-1-(5-methoxy-2,2-dimethyl-2H-chromen-8-yl)prop-2-en-1-one] | > 10 µM | > 10 µM | > 10 µM | > 10 µM | > 10 µM |  |  |  |  | 
10 | COc1ccccc1/C=C/C(=O)c1ccc(OC)c2c1OC(C)(C)C=C2 [SKLBC-40, (E)-1-(5-methoxy-2,2-dimethyl-2H-chromen-8-yl)-3-(2-methoxyphenyl)prop-2-en-1-one] | > 10 µM | > 10 µM | > 10 µM | > 10 µM | > 10 µM |  |  |  |  | 
11 | CCOc1ccc(C(=O)/C=C/c2ccc(N(CC)CC)cc2)c2c1C=CC(C)(C)O2 [SKLBC-41, (E)-3-(4-(diethylamino)phenyl)-1-(5-ethoxy-2,2-dimethyl-2H-chromen-8-yl)prop-2-en-1-one] |  |  |  |  |  |  |  |  | better inhibitory activity | 

Further lines, with some results ahead:

Row | IC50 (HT29) | IC50 (K562) | IC50 (HepG2) | IC50 (HCT116) | IC50 (SW620) | IC50 (SMMC-7221) | IC50 (A549) | IC50 (A375) | Compound | inhibitory activity against tumor cells (tumor cells) | IC50 (LO2)
12 | > 10 µM | > 10 µM | 7.56 µM | > 10 µM | 6.57 µM |  |  |  | COc1ccc(/C=C/C(=O)c2ccc(OC)c3c2OC(C)(C)C=C3)c(F)c1 [SKLBC-4, (E)-3-(2-fluoro-4-methoxyphenyl)-1-(5-methoxy-2,2-dimethyl-2H-chromen-8-yl)prop-2-en-1-one] | better inhibitory activity | 
13 | 4.48 µM | 3.67 µM | 0.21 µM | > 10 µM | 2.14 µM |  |  |  | COc1ccc(C(=O)/C=C/c2ccc3ccccc3c2)c2c1C=CC(C)(C)O2 [SKLBC-10, (E)-1-(5-methoxy-2,2-dimethyl-2H-chromen-8-yl)-3-(naphthalen-2-yl)prop-2-en-1-one] | better inhibitory activity | 
14 | 1.31 µM | 4.6 µM | 2.3 µM | > 10 µM | > 10 µM |  |  |  | CCN(CC)c1ccc(/C=C/C(=O)c2ccc(OC)c3c2OC(C)(C)C=C3)cc1 [SKLBC-12, (E)-3-(4-(diethylamino)phenyl)-1-(5-methoxy-2,2-dimethyl-2H-chromen-8-yl)prop-2-en-1-one] | better inhibitory activity | 
15 | > 10 µM | > 10 µM | 4.74 µM | 8.88 µM | > 10 µM |  |  |  | COc1ccc(C(=O)/C=C/c2ccc(N3CCCC3)cc2)c2c1C=CC(C)(C)O2 [SKLBC-14, (E)-1-(5-methoxy-2,2-dimethyl-2H-chromen-8-yl)-3-(4-(pyrrolidin-1-yl)phenyl)prop-2-en-1-one] | better inhibitory activity | 
16 |  | 4.42 µM | 9.7 µM |  |  | > 10 µM | 9.7 µM | 8.4 µM | CCN(CC)c1ccc(/C=C/C(=O)c2ccc(OS(=O)(=O)c3ccc(C)cc3)c3c2OC(C)(C)C=C3)cc1 [SKLBC-46, (E)-8-(3-(4-(diethylamino)phenyl)acryloyl)-2,2-dimethyl-2H-chromen-5-yl 4-methylbenzenesulfonate] | better inhibitory activity | 8.2 µM
17 |  | 0.528 µM | 0.185 µM |  |  | 0.23 µM | 8.45 µM | 0.45 µM | CCN(CC)c1ccc(/C=C/C(=O)c2ccc(OS(C)(=O)=O)c3c2OC(C)(C)C=C3)cc1 [SKLBC-47, (E)-8-(3-(4-(diethylamino)phenyl)acryloyl)-2,2-dimethyl-2H-chromen-5-yl methanesulfonate] | better inhibitory activity | > 20 µM
18 |  | 2.92 µM | 5.55 µM |  |  | 8.6 µM | 6.9 µM | 4.1 µM | C=CC(=O)Oc1ccc(C(=O)/C=C/c2ccc(N(CC)CC)cc2)c2c1C=CC(C)(C)O2 [SKLBC-49, (E)-8-(3-(4-(diethylamino)phenyl)acryloyl)-2,2-dimethyl-2H-chromen-5-yl acrylate] | better inhibitory activity | 8.6 µM
19 |  | 0.59 µM | 0.703 µM |  |  | 9.7 µM | 1.61 µM | 9.2 µM | CCN(CC)c1ccc(/C=C/C(=O)c2ccc(OC(=O)c3ccco3)c3c2OC(C)(C)C=C3)cc1 [SKLBC-50, (E)-8-(3-(4-(diethylamino)phenyl)acryloyl)-2,2-dimethyl-2H-chromen-5-yl furan-2-carboxylate] | better inhibitory activity | > 20 µM
20 |  | 0.317 µM | 0.59 µM |  |  | 0.78 µM | 0.94 µM | 0.61 µM | CCN(CC)c1ccc(/C=C/C(=O)c2ccc(OC(=O)C(C)C)c3c2OC(C)(C)C=C3)cc1 [SKLBC-52, (E)-8-(3-(4-(diethylamino)phenyl)acryloyl)-2,2-dimethyl-2H-chromen-5-yl isobutyrate] | better inhibitory activity | > 10 µM
21 |  | 0.51 µM | 0.533 µM |  |  | 0.773 µM | 0.41 µM | 0.263 µM | CCN(CC)c1ccc(/C=C/C(=O)c2ccc(OC(=O)C3CC3)c3c2OC(C)(C)C=C3)cc1 [SKLBC-54, (E)-8-(3-(4-(diethylamino)phenyl)acryloyl)-2,2-dimethyl-2H-chromen-5-yl cyclopropanecarboxylate] | better inhibitory activity | > 10 µM
22 |  | 1.05 µM | 1.07 µM |  |  | 1.62 µM | 0.5 µM | 0.48 µM | CCN(CC)c1ccc(/C=C/C(=O)c2ccc(OC(=O)Cc3cccc(C(F)(F)F)c3)c3c2OC(C)(C)C=C3)cc1 [SKLBC-55, (E)-8-(3-(4-(diethylamino)phenyl)acryloyl)-2,2-dimethyl-2H-chromen-5-yl 2-(3-(trifluoromethyl)phenyl)acetate] | better inhibitory activity | > 10 µM

Source: patent US9394268B2, “(E)-1-(5-methoxy-2,2-dimethyl-2H-chromen-8-yl)-3-(4-methoxyphenyl)prop-2-en-1-one and analogs thereof, as well as preparation method and use thereof” (Sichuan University, priority 2012, dated 2016)
